Reference: patent US5753615A, “Neuropeptides and their use as insecticides” (Queen Mary and Westfield College, priority 1993, dated 1998)
Non-standard residues stand in square brackets, D forms with d. No end group written: not given here. pGlu = O=C1CC[C@@H](C(=O)O)N1

Experiments:
[1] = tested on: corpora allata of the cockroach Diploptera punctata; type: cell-based
Description: Thus, it causes maximum inhibition of JH at a concentration of 1 nM, with a 50% inhibition (ED50) being achieved at 0.1 nM.

[2] = tested on: corpora allata of the cockroach Diploptera punctata; conditions: given 'in comparison'; known allatostatins of the literature; test system not restated; cited from earlier work

GPPYDFGM-NH2 [Callatostatin 5, Gly-Pro-Pro-Tyr-Asp-Phe-Gly-Met-NH2]
50% inhibition (ED50) of JH production [1]: 0.1 nM

[pGlu]VRFRQCYFNPISCF-OH (cysteine pairing not given here) [allatostatin of Manduca sexta]
ED50 (inhibition of JH production), comparison values [2]: 2 nM
